The record followed here is publication doi:10.1101/843607v1 (biorxiv, 2019).

As a reminder, the IC50 is the concentration that inhibits the measured activity by half.

The target of this experiment is T1, Recombinant Mouse Matriptase (Mus musculus, UniProt P56677).
T1 sequence (P56677 615-855 limits assumed): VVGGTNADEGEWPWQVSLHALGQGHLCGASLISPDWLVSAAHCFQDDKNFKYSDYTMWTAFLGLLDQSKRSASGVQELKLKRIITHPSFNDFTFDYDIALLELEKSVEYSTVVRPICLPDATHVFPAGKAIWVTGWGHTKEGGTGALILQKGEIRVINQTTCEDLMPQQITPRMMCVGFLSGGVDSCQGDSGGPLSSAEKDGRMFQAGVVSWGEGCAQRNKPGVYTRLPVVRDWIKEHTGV
Put plainly: fluorogenic AMC release from Boc-QAC-AMC. Type of experiment: biochemical.

Regarding `N=C(N)c1ccc2cc(OC(=O)c3ccc(N=C(N)N)cc3)ccc2c1` [Nafamostat mesilate], the concentration for half-maximal inhibition (IC50) is 860 pM.
